According to BindingDB's records for doi:10.1016/j.bmc.2013.02.042 (The City University of New York, 2013):

Biological target: Sphingosine kinase 1 (Homo sapiens, UniProt Q9NYA1)
Assay: Competitive inhibition of SK1 (unknown origin) in presence of ATP

Sequence of Sphingosine kinase 1 (Q9NYA1 whole entry): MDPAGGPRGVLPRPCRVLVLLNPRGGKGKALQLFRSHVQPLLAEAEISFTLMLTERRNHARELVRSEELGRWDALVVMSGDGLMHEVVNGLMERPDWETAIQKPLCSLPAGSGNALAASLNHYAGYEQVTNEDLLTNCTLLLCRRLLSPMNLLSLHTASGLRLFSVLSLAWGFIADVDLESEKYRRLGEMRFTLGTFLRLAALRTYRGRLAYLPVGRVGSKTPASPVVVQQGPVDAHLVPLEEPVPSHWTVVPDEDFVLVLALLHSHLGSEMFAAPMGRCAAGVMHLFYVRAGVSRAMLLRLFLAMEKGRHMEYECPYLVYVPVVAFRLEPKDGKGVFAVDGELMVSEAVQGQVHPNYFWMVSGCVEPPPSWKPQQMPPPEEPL

- Ki: 10 µM
Structure (SMILES): CCCCCCCCc1ccc(CC[C@](N)(/C=C/P(=O)(O)O)CO)cc1
